Source: patent publication US8673884B2 (priority 2008, dated 2014)

Assays:
[1] = tested on: Avian influenza H5N1 virus, A/Vietnam/1203/04; format: cell-based
[2] = tested on: Primary human blood macrophages; experiment: Cell viability test (MTT); details: 100 uM
H5N1 virus = format: cell-based, influenza A H5N1 virus
MDCK cells = experiment: Cell viability test (MTT); details: 100 uM
[3] = tested on: human influenza H1N1 virus, A/HK/54/98; format: cell-based
dihydrofolic reductase = target: T1, dihydrofolic reductase (Homo sapiens, UniProt P00374); details: Baker and Jordaan, J. Med. Chem. 1965; cited from earlier work
T1 sequence (P00374 1-187): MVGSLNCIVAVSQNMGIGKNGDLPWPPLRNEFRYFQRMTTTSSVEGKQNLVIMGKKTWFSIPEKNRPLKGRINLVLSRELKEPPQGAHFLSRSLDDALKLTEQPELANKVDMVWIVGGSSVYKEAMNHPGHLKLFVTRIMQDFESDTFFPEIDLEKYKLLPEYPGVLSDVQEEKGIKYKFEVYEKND

H1N1 virus = format: cell-based, influenza A H1N1 virus

SMILES | inhibition of replication of H5N1 virus (in words) [1] | degree of cytotoxicity (MTT, OD560-OD670 of sample / DMSO) ([2]; 72 hours, primary human blood macrophages, relative to DMSO) | cytotoxicity (in words) ([2]; primary macrophages, compared with DMSO) | level of H5N1 viruses on the surface of MDCK cells (H5N1 virus) | degree of cytotoxicity (MTT, OD560-OD670 of sample / DMSO) (MDCK cells; 72 hours, relative to DMSO) | cytotoxicity (in words) (MDCK cells; compared with DMSO) | inhibition of replication of H1N1 virus (in words) [3] | inhibition of dihydrofolic reductase (dihydrofolic reductase) | level of H1N1 viruses on the surface of MDCK cells (H1N1 virus) | H5N1 virus titer [1]
Cc1nc(N)nc(O)c1CCCNc1ccc(/C=C/C(=O)CCl)cc1 [NSC#89853, 4-(4-((3-(2-amino-4-hydroxy-6-methyl-5-pyrimidinyl)propyl)amino)phenyl)-1-chloro-3-buten-2-one] | inhibits the replication | 1.1 | does not display cytotoxicity | lower | 2.2 | does not display cytotoxicity | inhibits the replication | inhibitor | lower | –
CCOC(=O)C1=C[C@@H](OC(CC)CC)[C@H](NC(C)=O)[C@@H](N)C1 [oseltamivir, reference compound] | – | – | – | lower | – | – | – | – | lower | 2.46 × 10^6 TCID50/ml
